According to PubChem BioAssay (NCI):
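Exposure lasted 48 hours, with cells grown in 96-well plates and compounds tested at five concentrations. GI50 is the concentration that inhibits growth by half. Definition used: TGI = concentration required for complete inhibition of growth.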

Tests used:
Assay in all cases: NCI-60 cell line screen, 48 h
[1] = system: CCRF-CEM leukemia
[2] = system: HCT-116 colon
[3] = system: HL-60(TB) leukemia
[4] = system: HOP-62 NSCLC
[5] = system: MCF7 breast
[6] = system: MOLT-4 leukemia
[7] = system: NCI-H23 lung
[8] = system: OVCAR-5 ovarian
[9] = system: OVCAR-8 ovarian
[10] = system: SF-268 CNS
[11] = system: SN12C renal
[12] = system: U251 CNS
[13] = system: SK-MEL-2 melanoma

`Clc1nc(Cl)c(Cl)c(Cl)n1` was tested, and the TGI [1] was 15.2 µM, the TGI [2] was 38.2 µM and the TGI [3] was 33.1 µM. The TGI [4] was 35.7 µM, the TGI [5] was 37.9 µM and the TGI [6] was 15.5 µM. For the same compound, the TGI [7] was 40.3 µM, the TGI [8] was 43.1 µM and the TGI [9] was 80.2 µM. For the same compound, the TGI [10] was 56.9 µM, the TGI [11] was 42.7 µM and the TGI [12] was 36.1 µM.
In the case of `Cc1cc(O)c2c(c1O)C(=O)C13C(=C2O)C(=O)C2C(O)C1C1C(O)C3C(=O)C3=C(O)c4c(O)cc(C)c(O)c4C(=O)C321` (stereo not drawn), the TGI [1] is reported as 0.613 µM, the TGI [2] is reported as 0.168 µM and the TGI [4] is reported as 0.526 µM. The TGI [6] was 0.483 µM, the TGI [8] was 9.41 µM and the TGI [9] was 1.59 µM. For the same compound, the TGI [10] was 0.458 µM, the TGI [13] was 0.468 µM and the TGI [12] was 0.188 µM.
For `CCOC(=O)c1sc2nc(SC)nc3c2c1NC(=O)CN3c1cccc(F)c1`, the TGI [2] was 53 µM, the TGI [3] was 24.4 µM and the TGI [4] was 28.3 µM. For the same compound, the TGI [5] was over 100 µM, the TGI [6] was 67.7 µM and the TGI [7] was over 100 µM. The TGI [8] was over 100 µM, the TGI [9] was 30.6 µM and the TGI [10] was 28.1 µM. For the same compound, the TGI [13] was 67.6 µM, the TGI [11] was 35.5 µM and the TGI [12] was 31.9 µM.
With `CCN(CC)CCCOC(=O)/C=C/c1c(C)[nH]c(=O)[nH]c1=O` the TGI [1] was over 625 µM, the TGI [2] was over 625 µM and the TGI [3] was over 625 µM. For the same compound, the TGI [4] was over 625 µM, the TGI [5] was over 625 µM and the TGI [6] was over 625 µM. The TGI [7] was over 625 µM, the TGI [8] was over 625 µM and the TGI [9] was over 625 µM. For the same compound, the TGI [10] was over 625 µM, the TGI [13] was over 394 µM and the TGI [11] was over 463 µM. It also gave a TGI [12] of over 625 µM.
`O=C(NCCCCCCNC(=O)n1cc(F)c(=O)[nH]c1=O)NCCCOCCOCCCNC(=O)C(O)C(O)C(O)C(O)CO` (stereo not drawn) showed a TGI [1] of over 2.5 µM, a TGI [2] of over 2.5 µM and a TGI [3] of over 2.5 µM. For the same compound, the TGI [4] was over 2.5 µM, the TGI [5] was over 2.5 µM and the TGI [6] was over 2.5 µM. For the same compound, the TGI [7] was over 2.5 µM, the TGI [8] was over 2.5 µM and the TGI [9] was over 2.5 µM. It also gave a TGI [10] of over 2.5 µM, a TGI [13] of over 2.5 µM and a TGI [11] of over 2.5 µM. It also gave a TGI [12] of over 2.5 µM.
Work on `C=C1C[C@@H](O)C[C@@]2(C)C[C@@H]3OC(=O)C(=C)[C@@H]3C[C@H]12` yielded a TGI [1] of over 36.1 µM, a TGI [2] of 11.9 µM and a TGI [3] of 5.94 µM. For the same compound, the TGI [4] was 53.4 µM, the TGI [5] was 24.8 µM and the TGI [6] was 16.1 µM. It also gave a TGI [7] of 35.4 µM, a TGI [8] of 28 µM and a TGI [9] of 46.6 µM. It also gave a TGI [10] of 14.4 µM, a TGI [13] of 39.3 µM and a TGI [11] of 19.6 µM. It also gave a TGI [12] of 39.9 µM.
In the case of `Cc1c2c(cc3c1[nH]c1ccccc13)C=NCC2`, the TGI [1] is reported as 30.5 µM, the TGI [2] is reported as 14.6 µM and the TGI [3] is reported as 27.8 µM. The TGI [4] was 56.4 µM, the TGI [5] was 8.7 µM and the TGI [6] was 24.8 µM. The TGI [7] was 82.4 µM, the TGI [8] was 61 µM and the TGI [9] was 36.4 µM. It also gave a TGI [10] of 49.6 µM, a TGI [13] of 21.1 µM and a TGI [11] of 62.6 µM. For the same compound, the TGI [12] was 47.3 µM.
`CC(=O)NCCC1CN(C(=O)/C=C\C#C[Si](C)(C)C)c2ccccc21` (stereo not drawn) gave a TGI [1] of over 100 µM, a TGI [3] of 81.3 µM and a TGI [5] of over 100 µM. For the same compound, the TGI [6] was over 100 µM, the TGI [7] was 28.4 µM and the TGI [8] was 33.7 µM. The TGI [9] was over 100 µM, the TGI [10] was over 100 µM and the TGI [13] was 37.8 µM. It also gave a TGI [11] of over 100 µM.
`O=C(Nc1c[nH]c(=O)[nH]c1=O)C(Cl)Cl` gave a TGI [1] of over 100 µM, a TGI [2] of over 100 µM and a TGI [3] of over 100 µM. It also gave a TGI [4] of over 100 µM, a TGI [5] of over 100 µM and a TGI [6] of over 100 µM. For the same compound, the TGI [7] was over 100 µM, the TGI [9] was over 100 µM and the TGI [13] was over 100 µM. For the same compound, the TGI [11] was over 100 µM and the TGI [12] was over 100 µM.
Work on `C/C(=N\NS(=O)(=O)c1ccccc1)c1ccccc1` yielded a TGI [1] of over 100 µM, a TGI [2] of over 100 µM and a TGI [3] of over 100 µM. The TGI [4] was over 100 µM, the TGI [5] was over 100 µM and the TGI [6] was over 100 µM. For the same compound, the TGI [7] was over 100 µM, the TGI [8] was over 100 µM and the TGI [9] was over 100 µM. For the same compound, the TGI [10] was over 100 µM, the TGI [13] was over 100 µM and the TGI [11] was over 100 µM. The TGI [12] was over 100 µM.
`O=C1CC(=O)c2c(O)cc(O)c(c2O)-c2c(ccc(O)c2O)C2=CC(=O)c3c(O)cc(O)c(c3O2)-c2c1ccc(O)c2O` (tested in a mixture with another compound) was tested, and the TGI [1] was over 50 µM, the TGI [2] was over 50 µM and the TGI [3] was over 50 µM. The TGI [4] was over 50 µM, the TGI [5] was over 50 µM and the TGI [6] was over 50 µM. For the same compound, the TGI [7] was over 50 µM, the TGI [8] was over 50 µM and the TGI [9] was over 50 µM. It also gave a TGI [10] of over 50 µM, a TGI [13] of over 50 µM and a TGI [11] of over 50 µM. The TGI [12] was over 50 µM.
Compound `O=C(CC/C=C(/CS(=O)(=O)c1ccccc1)S(=O)(=O)c1ccccc1)c1ccccc1` has a TGI [1] of over 100 µM, a TGI [2] of over 100 µM and a TGI [3] of over 100 µM. The TGI [4] was over 100 µM, the TGI [6] was over 100 µM and the TGI [7] was over 100 µM. For the same compound, the TGI [8] was over 100 µM, the TGI [9] was over 100 µM and the TGI [13] was over 100 µM. The TGI [11] was over 100 µM and the TGI [12] was over 100 µM.
With `CC(=O)OCC1OC(n2cc(F)c(=O)[nH]c2=O)C(N)C(OC(C)=O)C1OC(C)=O` (stereo not drawn) the TGI [1] was over 100 µM, the TGI [2] was over 100 µM and the TGI [3] was over 100 µM. For the same compound, the TGI [4] was over 100 µM, the TGI [5] was over 100 µM and the TGI [6] was over 100 µM. The TGI [7] was over 100 µM, the TGI [8] was over 100 µM and the TGI [9] was over 100 µM. It also gave a TGI [10] of over 100 µM, a TGI [13] of over 100 µM and a TGI [11] of over 100 µM. The TGI [12] was over 100 µM.
For `Nc1nc2c(c(=O)[nH]1)N(C=O)C(CNc1ccc(C(=O)N[C@@H](CCC(=O)O)C(=O)O)cc1)CN2` (stereo partly drawn), the TGI [1] was over 31.4 µM, the TGI [2] was over 125 µM and the TGI [3] was over 31.4 µM. It also gave a TGI [4] of over 125 µM, a TGI [5] of over 125 µM and a TGI [6] of over 125 µM. It also gave a TGI [7] of over 125 µM, a TGI [8] of over 125 µM and a TGI [9] of over 125 µM. It also gave a TGI [10] of over 125 µM, a TGI [13] of 49.1 µM and a TGI [11] of over 125 µM. It also gave a TGI [12] of over 125 µM.
Compound `CC(=O)[C@@H]1CCC=C2CC[C@]3(C)[C@@H](CC[C@@H]4[C@@]5(C)CCCNC(C)(C)[C@@H]5CC[C@]43C)[C@H]21` has a GI50 [1] of 2.27 µM, a TGI [1] of 5.63 µM and a GI50 [4] of 1.82 µM. The TGI [4] was 3.4 µM, the GI50 [5] was 1.37 µM and the TGI [5] was 2.92 µM. For the same compound, the GI50 [9] was 1.99 µM, the TGI [9] was 3.94 µM and the GI50 [13] was 2.01 µM. For the same compound, the TGI [13] was 3.69 µM, the GI50 [11] was 1.79 µM and the TGI [11] was 3.31 µM. The GI50 [12] was 1.76 µM and the TGI [12] was 3.27 µM.
